Laboratory results reported in PubChem BioAssay (NCI).
Values joined by “and” are separate entries in the source; they are usually repeats but may differ in a detail not shown here. Equal entries are not always repeated.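 Compound exposure: 48 hours, 5 concentrations, 96-well plates. Abbreviation: GI50, concentration required for 50% inhibition of growth. TGI marks complete inhibition of growth.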

Legend:
Assay in all cases: NCI anticancer screen, dose series, 48 h
[1] = tested on: UO-31 renal
[2] = tested on: SK-MEL-28 melanoma
[3] = tested on: HCC-2998 colon
[4] = tested on: RPMI-8226 leukemia
[5] = tested on: 786-0 renal
[6] = tested on: SNB-19 CNS
[7] = tested on: SN12C renal
[8] = tested on: NCI-H226 lung
[9] = tested on: IGROV1 ovarian
[10] = tested on: NCI-H23 lung

| Compound | GI50 [1] | TGI [1] [µM] | GI50 [2] | TGI [2] [µM] | GI50 [3] [µM] | TGI [3] [µM] | GI50 [4] | TGI [4] [µM] | GI50 [5] | TGI [5] | GI50 [6] | TGI [6] [µM] | GI50 [7] | TGI [7] | GI50 [8] | TGI [8] | GI50 [9] [µM] | TGI [9] [µM] | GI50 [10] | TGI [10] |
| --- | --- | --- | --- | --- | --- | --- | --- | --- | --- | --- | --- | --- | --- | --- | --- | --- | --- | --- | --- | --- |
| CNCCNc1c2c(c(NCCNC)c3[nH]ccc13)C(=O)c1ccccc1C2=O | 0.201 µM | 0.818 | 4.18 µM | 11.1 | 0.203 | 0.649 | 0.051 µM | 0.214 | 0.0646 µM | 0.821 µM | 4.58 µM | 11.5 | < 0.0257 µM | 0.097 µM | 0.215 µM | 1.84 µM | 0.111 | 0.686 | 0.197 µM | 0.558 µM |
| COc1ccc(-n2cc(-c3cc(OC)c(OC)c(OC)c3)nc2SCc2ccccc2)cc1OC | 17.7 µM | > 100 | > 100 µM | > 100 | > 100 | > 100 | 25.8 µM | > 100 | > 100 µM | > 100 µM | > 100 µM | > 100 | > 100 µM | > 100 µM | > 78.7 µM | > 100 µM | 31.6 | 88 | > 100 µM | > 100 µM |
| COc1ccc(S(=O)(=O)Nc2cc(/C=C\c3cc(OC)c(OC)c(OC)c3)ccc2OC)cc1 | 0.131 µM | 7.48 | 0.143 µM | > 100 | 0.442 | > 100 | 0.319 µM | 3.83 | 0.361 µM | 95.6 µM | 0.352 µM | > 100 | 0.682 µM | > 100 µM | 12.8 µM | > 100 µM | 0.166 | > 100 | 0.48 µM | > 100 µM |
| COc1ccc(C(=O)/C=C/c2ccc3c(c2)OCO3)c(OCc2ccccc2)c1 | – | > 100 | – | > 100 | – | > 100 | – | 76.6 | – | > 100 µM | – | > 100 | – | > 100 µM | – | > 100 µM | – | > 100 | – | > 100 µM |
| CNC(=O)CC1NC(=O)c2csc(n2)-c2ccc(-c3nc(C4=NC(C(=O)N5CCCC5C(N)=O)CO4)cs3)nc2-c2csc(n2)-c2csc(n2)C(C(C)C)NC(=O)CNC(=O)c2csc(n2)C(C(C)C)NC(=O)c2nc1sc2C (stereo unspecified) | > 25 µM | > 25 | – | > 25 | – | 2.31 | < 0.001 µM | – | > 25 µM | > 25 µM | > 25 µM | > 25 | > 25 µM | > 25 µM | > 25 µM | > 25 µM | > 25 | – | > 25 µM | – |
| COc1cccc2c1C(=O)c1c(O)c3c(c(O)c1C2=O)C[C@@](O)(C(=O)CO)C[C@@H]3O[C@H]1C[C@H](N)[C@@H](O)[C@H](C)O1 | 0.866 µM | 5.89 | 0.351 µM | 1.35 | 0.161 | 1.29 | 0.161 µM | 3.61 | 0.123 µM | 1.86 µM | 0.127 µM | 21.7 | 0.126 µM | 11.9 µM | 0.068 µM | 0.222 µM | 0.175 | 21.2 | 0.122 µM | 0.953 µM |
| COc1ccc(/C=C(\C#N)n2nnc3ccccc32)cc1 | 1.01 µM | 13 | 1.65 µM | > 86.9 | 0.458 | 7.11 | 0.385 µM | 24.6 | 0.63 µM | 7.22 µM | 0.361 µM | 13.3 | 0.832 µM | 26.6 µM | 1.11 µM | 21.2 µM | 0.158 | 8.16 | 0.572 µM | 50.4 µM |
| COc1ccccc1N1CCN(CCc2c[nH]c3cc4c(cc23)OCO4)CC1 | 20.3 µM | > 100 | 43.9 µM | > 100 | 16.5 | 32.6 | 25.1 µM | > 100 | 32.4 µM | > 100 µM | 26 µM | > 100 | 23.5 µM | > 100 µM | 29.9 µM | > 100 µM | 40.2 | > 100 | 23.4 µM | > 100 µM |
| Oc1[nH]c2c(Br)cccc2c1C1=Nc2ccccc2/C1=N/OCCN1CCCC1 | 0.44 µM | 4.97 | 1.92 µM | 5.49 | 1 | 6.18 | 1.35 µM and 1.59 µM | – | 0.648 µM and 0.942 µM | 2.58 µM and 4.31 µM | 1.93 µM | – | 0.74 µM | 4.99 µM and 8.59 µM | 0.948 µM and 0.708 µM | 3.05 µM and 29.1 µM | 0.469 | 2.98 | 1.02 µM and 0.959 µM | 4.17 µM and 36.5 µM |
| COc1cc(/C=N/NC(=O)c2cnn3c2NC(c2ccccc2)C3)ccc1Oc1ccccc1 (stereo unspecified) | 1.69 µM | 12.2 | 1.38 µM | 6.94 | 3.6 | 30 | 2.83 µM | 31.4 | 1.19 µM | 5.65 µM | 1.43 µM | 8.31 | 1.78 µM | 4.22 µM | 2.17 µM | 7.95 µM | 1.36 | 10.8 | 1.63 µM | 10.8 µM |
| COc1cc(C(O)C(=O)c2nc3ccc([N+](=O)[O-])cc3[nH]c2=O)ccc1O (stereo unspecified) | – | > 100 | – | > 100 | – | > 100 | – | > 100 | – | > 100 µM | – | > 100 | – | > 100 µM | – | > 100 µM | – | > 100 | – | > 100 µM |
| O=C(c1ccccc1)[C@@H]1C[C@H](Sc2ccccc2)c2cc(Cl)ccc2N1 | – | 56.7 | – | 58.9 | – | 51.8 | – | > 100 | – | 33.6 µM | – | > 100 | – | 33.7 µM | – | 62.9 µM | – | > 100 | – | 64.2 µM |
| COc1ccc(NC(=O)COCCOCCNC[C@@H]2C(=O)O[C@H]3[C@H]2CC/C(COC(=O)OC/C2=C/CC[C@@]4(C)O[C@H]4[C@H]4OC(=O)[C@@H](CN(C)C)[C@@H]4CC2)=C\CC[C@@]2(C)O[C@@H]32)c(O)c1C(N)=O | 2.51 µM | 9.13 | 2.79 µM | 9.57 | 10.2 | 19.1 | 1.42 µM | 4.21 | 6.17 µM | 13.7 µM | 14.3 µM | > 50 | 7.74 µM | 17.5 µM | 8.33 µM | 16.2 µM | 4.68 | 11.8 | 9.06 µM | 22.1 µM |
| COc1cccc(OCCCN)c1-c1cc(Nc2cnc(C#N)cn2)n[nH]1 | 0.0279 µM and 0.0321 µM | – | 0.955 µM and 3.11 µM | 17.4 | 0.00484 | 11.2 | 0.197 µM and 0.0489 µM | 7.59 | 0.00328 µM | 0.706 µM | 0.0188 µM and 0.0256 µM | 19.5 | 0.189 µM and 0.13 µM | 10.8 µM | 2.23 µM | 8.39 µM | – | 15.6 | 0.00479 µM and < 0.0109 µM | 8.88 µM |
| Cc1cc(=O)[nH]c2cc3c(c4c(n3Cc3ccc(Cl)cc3Cl)CC(C)(C)CC4=O)c(O)c12 | > 100 µM | > 100 | > 100 µM | > 100 | > 100 | > 100 | > 100 µM | > 100 | 0.0145 µM | 0.134 µM | 55.8 µM | > 100 | > 100 µM | > 100 µM | > 100 µM | > 100 µM | > 100 | > 100 | 39.6 µM | > 100 µM |
| Cc1cc(NCc2cc(Nc3ccnc4cc(Cl)ccc34)ccc2F)nc(N2CCN(C)CC2)n1 | 1.38 µM | 3.11 | 1.7 µM | 3.26 | 2.09 | 4.35 | 1.32 µM | 3.65 | 1.44 µM | 2.88 µM | 2.72 µM | 12.9 | 2.32 µM | 8.31 µM | 2.22 µM | 5.5 µM | 2.08 | 5.76 | 2.1 µM | 6.54 µM |
| Cc1cc2[nH]c(=O)c3c4ccccc4cn3c2cc1C | 14.6 µM | 28 | 14.8 µM | 35.1 | 4.04 | 16.7 | 6.75 µM | 29.8 | 10.7 µM | 22.7 µM | 16.3 µM | 36.7 | 6.02 µM | 20.3 µM | 15.1 µM | 36.7 µM | 12.3 | 26.6 | 14.9 µM | 32.2 µM |
| CN(C)CC1C(=O)O[C@H]2[C@H]1CC/C(COC(=O)c1cc3ccccc3[nH]1)=C\CC[C@@]1(C)O[C@@H]21 (stereo partly specified) | 0.872 µM | 2.36 | 2.17 µM | 5.24 | 1.78 | 3.58 | 0.354 µM | 2.11 | 1.69 µM | 4.88 µM | 11.4 µM | 25.9 | 2.2 µM | 6.08 µM | 3.23 µM | 9.35 µM | 1.97 | 4.62 | 2.39 µM | 8.3 µM |
| COC(=O)[C@]12CC=C3O[C@@H]4OC5(CCCCC5)O[C@@H]4C3[C@@H]1C(=O)CCC2=O (stereo partly specified) | – | > 100 | – | > 100 | – | > 100 | – | > 100 | – | > 100 µM | – | > 100 | – | > 100 µM | – | > 100 µM | – | > 100 | – | > 100 µM |
| COc1cc(Cl)cc(-c2nn(-c3cccc(NC(=O)Nc4cc(C(F)(F)F)cc(C(F)(F)F)c4)c3)cc2-c2ccncc2)c1 | 0.28 µM | 1.92 | 1.07 µM | 4.83 | 0.963 | 5.42 | 0.288 µM | 1.03 | 0.821 µM | 2.64 µM | 0.612 µM | 12.7 | 0.427 µM | 3.05 µM | 0.965 µM | 7.67 µM | 0.669 | 13.4 | 0.332 µM | 2.01 µM |
